Source: US12474342B2, “Methods for treating cancer and the use of biomarkers as a predictor of clinical sensitivity to therapies” (CELGENE CORPORATION, priority 2016, dated 2025)
Where two headings read alike, the source gives them in different places. Marks after values point to notes of the source that are not given here.

What was measured:
[1] = test system: HNT-34 cells; assay: Anti-proliferation 72-hour CTG assay, HNT-34; assay type: cell-based; settings: Homo sapiens
Protocol: (§1) A plethora of AML cell lines were treated with serial dilutions of Compound D. IC50 value of the anti-proliferation effect of Compound D (as determined in 72-hour CTG assays) in each cell line is summarized in Table 1.

[2] = test system: KG-1a cells; assay: Anti-proliferation 72-hour CTG assay, KG-1a; assay type: cell-based; settings: Homo sapiens, read-out: IC50 of the anti-proliferative effect
Protocol: as §1

[3] = test system: OCI-AML3 cells; assay: Anti-proliferation CTG assay, OCI-AML3; assay type: cell-based, human
Protocol: as §1
The effect of depletion of GSPT1 on the anti-proliferative effect of compound Compound D and Compound E was also determined in human acute myelogenous leukemia cell lines AML and KG1. Cells were infected with lentiviral vectors expressing control shRNA, shGSPT1-1 or shGSPT1-3 for 7 days and then treated with DMSO, Compound D or Compound E in a titration from 0.0001 μM to 1 μM. Two days after treatment, cell proliferation was measured by CellTiter-Glo cell viability. […] Both shGSPT1-1 and shGSPT1-3 reduced the expression of GSPT1, eRF1, and slightly of CRBN.

[4] = test system: KG-1 AML cell cultures; assay: Induction of apoptosis (Annexin V assay), KG-1; assay type: cell-based; settings: Homo sapiens, read-out: Induction of Apoptosis by Compound D (Annexin V assay) EC50
[5] = test system: HL-60 cells; assay: Apoptosis (caspase 3/7 activation), HL-60; assay type: cell-based, human; settings: for EC50: Homo sapiens, read-out: Compound D-induced Apoptosis EC50
[6] = test system: PARP; assay: PARP cleavage, western blot, HNT-34; assay type: cell-based, human; settings: HNT-34, 10 nM Compound D
Protocol: The time course of GSPT1 degradation was monitored by western blot analysis of HNT-34 AML cells and normal PBMCs (FIGS. 32A-32D) following incubation with Compound D (1, 10, and 100 nM).

[7] = target: T1, GSPT1 (Homo sapiens, UniProt P15170+Q96SW2); assay: GSPT1 protein reduction, western analysis, ML-2; assay type: cell-based; parameters: reduction in GSPT1 protein level was evaluated in human normal PBMCs; endogenous in cells; host or cells: primary PBMCs from normal donors (ID 4328, 4379) and AML patients (ID 11SH, 09P6)
T1 sequence (P15170 1-637 isoform P15170-3): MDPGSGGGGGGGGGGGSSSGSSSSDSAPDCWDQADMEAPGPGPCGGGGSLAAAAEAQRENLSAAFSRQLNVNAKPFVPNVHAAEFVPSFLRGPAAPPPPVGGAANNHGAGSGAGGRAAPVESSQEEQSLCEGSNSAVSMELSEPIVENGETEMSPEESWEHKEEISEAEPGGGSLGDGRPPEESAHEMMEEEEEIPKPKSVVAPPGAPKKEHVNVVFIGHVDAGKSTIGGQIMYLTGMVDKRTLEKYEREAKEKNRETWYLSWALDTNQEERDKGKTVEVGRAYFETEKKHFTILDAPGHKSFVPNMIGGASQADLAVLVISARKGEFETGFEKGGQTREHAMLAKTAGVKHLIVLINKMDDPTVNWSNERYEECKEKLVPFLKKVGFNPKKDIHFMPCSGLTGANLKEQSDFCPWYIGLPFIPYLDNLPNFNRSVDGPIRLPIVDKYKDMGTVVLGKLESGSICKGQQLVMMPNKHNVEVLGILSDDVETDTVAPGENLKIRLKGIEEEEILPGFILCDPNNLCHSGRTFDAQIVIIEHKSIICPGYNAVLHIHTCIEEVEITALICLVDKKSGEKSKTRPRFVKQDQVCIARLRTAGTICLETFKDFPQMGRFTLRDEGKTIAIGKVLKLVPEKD
T1 sequence (Q96SW2 whole entry): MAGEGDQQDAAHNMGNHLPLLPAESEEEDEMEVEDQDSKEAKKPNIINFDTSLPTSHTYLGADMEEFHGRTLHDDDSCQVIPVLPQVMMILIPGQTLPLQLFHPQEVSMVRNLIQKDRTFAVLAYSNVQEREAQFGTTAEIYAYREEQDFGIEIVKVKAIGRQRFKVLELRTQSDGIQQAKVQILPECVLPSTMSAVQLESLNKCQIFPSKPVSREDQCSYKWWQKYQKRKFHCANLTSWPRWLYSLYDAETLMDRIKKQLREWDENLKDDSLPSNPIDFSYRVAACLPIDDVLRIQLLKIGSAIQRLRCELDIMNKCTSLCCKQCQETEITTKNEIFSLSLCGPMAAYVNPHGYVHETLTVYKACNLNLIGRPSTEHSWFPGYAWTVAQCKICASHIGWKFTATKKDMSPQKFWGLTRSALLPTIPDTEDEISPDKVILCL
T1 sequence (Q16531 whole entry partner): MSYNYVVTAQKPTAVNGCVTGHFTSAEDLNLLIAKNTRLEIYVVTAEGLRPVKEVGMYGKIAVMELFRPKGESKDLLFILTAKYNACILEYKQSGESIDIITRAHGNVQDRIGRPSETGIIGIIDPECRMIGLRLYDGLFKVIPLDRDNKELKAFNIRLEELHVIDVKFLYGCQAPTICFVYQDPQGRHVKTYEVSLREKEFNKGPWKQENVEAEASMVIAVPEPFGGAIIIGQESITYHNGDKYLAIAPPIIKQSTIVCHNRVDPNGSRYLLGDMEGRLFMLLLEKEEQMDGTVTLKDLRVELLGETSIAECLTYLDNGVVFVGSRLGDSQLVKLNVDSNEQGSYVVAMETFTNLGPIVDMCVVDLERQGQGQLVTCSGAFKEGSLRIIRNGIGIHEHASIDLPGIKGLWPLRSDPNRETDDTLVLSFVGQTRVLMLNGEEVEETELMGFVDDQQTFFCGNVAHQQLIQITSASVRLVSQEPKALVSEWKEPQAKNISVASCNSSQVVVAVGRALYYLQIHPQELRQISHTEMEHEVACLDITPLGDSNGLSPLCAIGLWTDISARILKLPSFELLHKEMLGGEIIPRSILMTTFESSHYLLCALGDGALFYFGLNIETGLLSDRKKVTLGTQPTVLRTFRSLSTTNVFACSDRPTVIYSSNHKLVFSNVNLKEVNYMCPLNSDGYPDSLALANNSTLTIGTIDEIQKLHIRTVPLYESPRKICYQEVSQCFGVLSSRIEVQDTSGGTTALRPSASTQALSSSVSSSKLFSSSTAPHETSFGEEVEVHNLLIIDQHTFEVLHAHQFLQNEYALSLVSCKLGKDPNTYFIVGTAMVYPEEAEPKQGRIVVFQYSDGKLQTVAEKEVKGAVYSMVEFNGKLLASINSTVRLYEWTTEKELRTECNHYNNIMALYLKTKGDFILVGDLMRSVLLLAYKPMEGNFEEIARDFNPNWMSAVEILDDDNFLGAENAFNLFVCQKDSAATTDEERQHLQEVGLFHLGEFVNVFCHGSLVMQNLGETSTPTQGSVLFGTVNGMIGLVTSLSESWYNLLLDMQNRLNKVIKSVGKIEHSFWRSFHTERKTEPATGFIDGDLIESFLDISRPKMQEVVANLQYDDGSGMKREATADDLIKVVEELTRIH
Protocol: (§2) The time course of the reduction in GSPT1 by Compound D also was studied for up to 48 hours. The progressive degradation of GSPT1 over the course of 1 to 20 hours was evident in the presence of all concentrations of Compound D studied from 3 to 300 nM in HNT-34, HL-60, and ML-2 cells, with little GSPT1 remaining by 20 hours at 100 or 300 nM Compound D in HNT-34 or HL-60 cells (FIG. 34 and FIG. 35C). Time-dependent reduction in GSPT1 was also observed in KG-1 and OCI-AML2 cells at 3 to 1000 nM Compound D, with little GSPT1 remaining in KG-1 cells at 100 to 300 nM at 24 hours or in OCI-AML2 cells at 300 and 1000 nM at 24 hours (FIG. 35D). Loss of GSPT1 occurred more slowly in Kasumi-1, AML-193, and […] cells. […] A positive association (r^2=0.50; […]

[8] = target: T1, GSPT1; assay: GSPT1 protein reduction, western analysis, AML-193; assay type: cell-based; parameters: reduction in GSPT1 protein level was evaluated in human normal PBMCs; endogenous in cells; host or cells: primary PBMCs from normal donors (ID 4328, 4379) and AML patients (ID 11SH, 09P6)
Protocol: as §2

[9] = target: T1, GSPT1; assay: GSPT1 protein reduction, western analysis, OCI-AML3; assay type: cell-based; parameters: reduction in GSPT1 protein level was evaluated in human normal PBMCs; endogenous in cells; host or cells: primary PBMCs from normal donors (ID 4328, 4379) and AML patients (ID 11SH, 09P6)
Protocol: The reduction in the level of GSPT1 protein was concentration-dependent over the range of 3 to 1000 nM in eight of the nine AML cell lines and over the range of 300 to 1000 nM in one relatively insensitive AML cell line. The time course of the reduction in GSPT1 by Compound D also was studied for up to 48 hours. The progressive degradation of GSPT1 over the course of 1 to 20 hours was evident in the presence of all concentrations of Compound D studied from 3 to 300 nM in HNT-34, HL-60, and ML-2 cells, with little GSPT1 remaining by 20 hours at 100 or 300 nM Compound D in HNT-34 or HL-60 cells (FIG. 34 and FIG. 35C). Time-dependent reduction in GSPT1 was also observed in KG-1 and OCI-AML2 cells at 3 to 1000 nM Compound D, with little GSPT1 remaining in KG-1 cells at 100 to 300 nM at 24 hours or in OCI-AML2 cells at 300 and 1000 nM at 24 hours (FIG. 35D). Loss of GSPT1 occurred more slowly in Kasumi-1, AML-193, and F36-P cells.
Compound D-mediated GSPT1 reduction at 8 hours was compared to induction of caspase 3/7 activation (apoptosis) at 12, 24, and 48 hour time points in these nine AML cell lines. […] A positive association (r^2=0.50; R=0.71; p value=4.86E-002) was observed between the level of GSPT1 reduction and apoptosis induction in the AML cell panel (FIG. 36), with >90% GSPT1 reduction correlating with induction of apoptosis.

O=C1CCC(N2Cc3cc(CNC(=O)C(F)(F)c4ccc(Cl)cc4)ccc3C2=O)C(=O)N1 (centres unmarked) [Compound D, 2-(4-chlorophenyl)-N-((2-(2,6-dioxopiperidin-3-yl)-1-oxoisoindolin-5-yl)methyl)-2,2-difluoroacetamide]
IC50 ([1]; HNT-34, read-out: anti-proliferative activity IC50): 3 nM
IC50 ([1]; HNT-34, 72-hour CTG assay, read-out: IC50 of the anti-proliferative effect): 3 nM
IC50 [2]: 21 nM
cell proliferation (CellTiter-Glo) ([3]; AML3 parental or control shRNA cells, 0.0001 μM to 1 μM, two days): exhibited anti-proliferative effect, particularly at high concentration
IC50 ([3]; Homo sapiens, OCI-AML-3, OCI-AML3, 72-hour CTG assay, read-out: IC50 of the anti-proliferative effect): 3400 nM
EC50 ([4]; KG-1, Compound F 0 μM): 20 nM
EC50 ([4]; KG-1, Compound F 0.1 μM): 30 nM
EC50 ([4]; KG-1, Compound F 1.0 μM): 100 nM
EC50 ([4]; KG-1, Compound F 10 μM): 1000 nM
EC50 ([4]; KG-1, Compound F 100 μM): 8000 nM
average percent increase in apoptosis ([5]; HL-60, 41 nM, 24 hour time-point): 9%
Average Percent Increase in Apoptosis at 123 nM Compound D, Apoptosis (12 hr) ([5]; HL-60, 123 nM, 12 hr): 1%
Average Percent Increase in Apoptosis at 123 nM Compound D, Apoptosis (24 hr) ([5]; HL-60, 123 nM, 24 hr): 19%
Average Percent Increase in Apoptosis at 123 nM Compound D, Apoptosis (48 hr) ([5]; HL-60, 123 nM, 48 hr): 62%
EC50 ([5]; HL-60, 24 hr): 73 nM
EC50 ([5]; HL-60, 48 hr): 15 nM
EC50 ([5]; HL-60, 72 hr): 8 nM
time of PARP cleavage [6]: 24 h
reduction of GSPT1 protein levels ([7]; ML-2, 100 nM Compound D, 8 hours): greater than 800
Percent Reduction at 100 nM Compound D GSPTI (8 hr) ([7]; ML-2, 100 nM, 8 hr): 82%
Percent Reduction at 100 nM Compound D GSPTI (8 hr) ([8]; AML-193, 100 nM, 8 hr): 49%
GSPT1 reduction ([8]; AML-193, 300 nM Compound D, 8 hours): 61%
Percent Reduction at 100 nM Compound D GSPTI (8 hr) ([9]; OCI-AML3, 100 nM, 8 hr, visual interpolation between 3 and 300 nM): ~30^b %
GSPT1 reduction ([9]; OCI-AML3, 300 nM Compound D, 8 hours): 37%
GSPT1 protein level ([9]; OCI-AML3, 4-hour exposure): barely changed
loss of GSPT1 ([9]; OCI-AML3, 300 and 1000 nM, 24 and 48 hours): slight loss
